The target in assay [1] is T1, Human immunodeficiency virus type 1 protease (Human immunodeficiency virus 1, UniProt Q72874). Description: In vitro binding affinity against HIV protease at pH 6.2.
The target of assay [2] is T1, Human immunodeficiency virus type 1 protease. Description: Binding affinity towards HIV protease was determined.
The target is the same in assay [3]. Description: ChEBML_157707. The conditions noted are these: pH 6.2. The procedure: In vitro binding affinity against HIV protease at pH 6.2 was determined

SMILES strings stand for the structures.

As to `Cc1cc(SC2C(=O)CC(CCc3ccccc3)(c3ccccc3)OC2=O)c(C(C)(C)C)cc1N` (configuration not stated) [3-(4-Amino-2-tert-butyl-5-methyl-phenylsulfanyl)-4-hydroxy-6-phenethyl-6-phenyl-5,6-dihydro-pyran-2-one], the IC50 in assay [1] was 11 nM.

Take `Cc1cc(SC2C(=O)CC(CCc3ccc(O)cc3)(C(C)C)OC2=O)c(C(C)(C)C)cc1NC(=O)c1ccccc1` (configuration not stated) [N-(5-tert-Butyl-4-{4-hydroxy-6-[2-(4-hydroxy-phenyl)-ethyl]-6-isopropyl-2-oxo-5,6-dihydro-2H-pyran-3-ylsulfanyl}-2-methyl-phenyl)-benzamide]: the IC50 in assay [1] stood at 13 nM.

For the compound `Cc1cc(SC2C(=O)C[C@@](CCc3ccc(O)cc3)(C(C)C)OC2=O)c(C(C)(C)C)cc1N` (stereo partly drawn) [(6S)-3-[(4-amino-2-tert-butyl-5-methylphenyl)sulfanyl]-4-hydroxy-6-[2-(4-hydroxyphenyl)ethyl]-6-(propan-2-yl)-5,6-dihydro-2H-pyran-2-one], the Ki in assay [2] and in assay [3] was 0.07 nM in each case.

`Cc1cc(SC2C(=O)CC(CCc3ccc(O)cc3)(C(C)C)OC2=O)c(C(C)(C)C)cc1NC(=O)c1cccnc1` (configuration not stated) [N-(5-tert-Butyl-4-{4-hydroxy-6-[2-(4-hydroxy-phenyl)-ethyl]-6-isopropyl-2-oxo-5,6-dihydro-2H-pyran-3-ylsulfanyl}-2-methyl-phenyl)-nicotinamide] registered an IC50 in assay [1] of 5.1 nM.

For the compound `Cc1cc(SC2C(=O)CC(CCc3ccc(O)cc3)(C(C)C)OC2=O)c(C(C)(C)C)cc1N(C)C` (configuration not stated) [3-(2-tert-Butyl-4-dimethylamino-5-methyl-phenylsulfanyl)-4-hydroxy-6-[2-(4-hydroxy-phenyl)-ethyl]-6-isopropyl-5,6-dihydro-pyran-2-one], in assay [1], the half-inhibitory concentration (IC50) stood at 11 nM. Against the preceding compound, the IC50 is about 2.2-fold higher.

In turn, `Cc1cc(SC2C(=O)CC(CCc3ccc(O)cc3)(C(C)C)OC2=O)c(C(C)(C)C)cc1NC(=O)c1ccncc1` (configuration not stated) [N-(5-tert-Butyl-4-{4-hydroxy-6-[2-(4-hydroxy-phenyl)-ethyl]-6-isopropyl-2-oxo-5,6-dihydro-2H-pyran-3-ylsulfanyl}-2-methyl-phenyl)-isonicotinamide] came in with an IC50 in assay [1] of 5.1 nM.

For orientation: IC50 means the concentration needed to halve the response being measured. A low value points to higher potency. As usually defined, the Ki is the equilibrium dissociation constant of an inhibitor or competing ligand from its target. Lower therefore signals a stronger hold on the target.

For the origin of these results see BindingDB's records for doi:10.1016/s0960-894x(99)00237-1 (Warner-Lambert, 1999).
